Data: patent publication US10287300B2 (Merck Patent GmbH, priority 2012, dated 2019)

How the values were obtained:
[1] = molecular target: P70S6K (T412E mutant, Millipore) (Homo sapiens (Human), UniProt P23443, T412E); test: P70S6K enzyme assay; type: biochemical; conditions: 24 μM ATP, 90 min at 25° C.
Experimental: P70S6K inhibitor compounds were diluted and plated in 96 well plates. A reaction mixture including the following components was then added to the compound plate to initiate the enzyme reaction; P70S6K (3 nM, T412E mutant, Millipore) was mixed with 24 μM ATP in an assay buffer containing 100 mM Hepes (pH 7.5), 5 mM MgCl2, 1 mM DTT, 0.015% Brij and 1 μM of the substrate peptide FITC-AHA-AKRRRLSSLRA-OH (derived from the S6 ribosomal protein sequence, FITC=fluorescein isothiocyanate, AHA=6-aminohexanoic acid). The reaction was incubated for 90 min at 25° C., before the addition of 10 mM EDTA to stop the reaction. The proportion of substrate and product (phosphorylated) peptide was analysed on a Caliper Life Sciences Lab Chip 3000, using a pressure of −1.4 psi, and upstream and downstream voltages of −3000 and −700 respectively. Product peaks were resolved before substrate peaks on the resulting chromatograms.

His-AKT (Full Length) = His-AKT (Full Length) (Homo sapiens (Human), UniProt P31749); test: AKT enzyme assay; type: biochemical; conditions: 160 uM ATP, 90 min at 25° C.
Experimental: A TTP Mosquito liquid handling instrument was used to place 125 nl of the appropriate concentration of inhibitor in 100% DMSO (for a dose response curve calculation) into each well of a 384-well plate. To this reaction components were added to a final volume of 12.5 μl: • 0.1 ng/μl His-AKT (Full Length), (Invitrogen, Part # P2999, Lot #641228C). • 160 uM ATP (Fluka, 02055) • 1 mM DTT (Sigma, D0632) • 1 mM MgCl2 (Sigma, M1028) • 1 μM substrate peptide (sequence FITC-AHA-GRPRTSSFAEG-NH2), • synthesized by Tufts Peptide Synthesis service. • 100 mM HEPES pH 7.5 (Calbiochem, 391338) • 0.015% Brij-35 (Sigma, B4184)
The reaction was incubated for 90 min at 25° C., and then stopped by the addition of 70 μl of Stop buffer (100 mM HEPES pH 7.5, 0.015% Brij-35, 10 mM EDTA (Sigma, E7889)).
The plate was read on a Caliper LC 3000 in an Off-Chip mobility shift assay format, using the following parameters for a 12-sipper chip: screening pressure −2.3 psi, upstream voltage −500, and downstream voltage −3000. These conditions caused unphosphorylated substrate and phosphorylated product peptide to resolve as separate peaks allowing direct measurement of percentage of conversion of substrate to product. The percent conversion was plotted against concentration of inhibitor to produce a sigmoidal dose response curve, from which an IC50 was calculated.

Chain of His-AKT (Full Length) (P31749 whole entry): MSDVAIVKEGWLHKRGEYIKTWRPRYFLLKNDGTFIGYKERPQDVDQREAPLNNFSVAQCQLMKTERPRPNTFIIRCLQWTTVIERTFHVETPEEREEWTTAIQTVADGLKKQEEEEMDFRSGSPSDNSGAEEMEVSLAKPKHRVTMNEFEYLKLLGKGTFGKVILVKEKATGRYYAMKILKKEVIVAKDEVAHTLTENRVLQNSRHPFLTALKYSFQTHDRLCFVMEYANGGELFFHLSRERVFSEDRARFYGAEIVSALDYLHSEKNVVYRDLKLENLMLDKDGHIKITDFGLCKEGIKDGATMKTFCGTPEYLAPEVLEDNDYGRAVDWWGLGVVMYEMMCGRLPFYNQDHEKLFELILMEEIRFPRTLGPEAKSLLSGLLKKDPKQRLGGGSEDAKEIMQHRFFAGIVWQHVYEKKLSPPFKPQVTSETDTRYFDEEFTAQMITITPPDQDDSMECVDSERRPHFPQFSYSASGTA
Chain of P70S6K (T412E mutant, Millipore) (P23443 whole entry T412E): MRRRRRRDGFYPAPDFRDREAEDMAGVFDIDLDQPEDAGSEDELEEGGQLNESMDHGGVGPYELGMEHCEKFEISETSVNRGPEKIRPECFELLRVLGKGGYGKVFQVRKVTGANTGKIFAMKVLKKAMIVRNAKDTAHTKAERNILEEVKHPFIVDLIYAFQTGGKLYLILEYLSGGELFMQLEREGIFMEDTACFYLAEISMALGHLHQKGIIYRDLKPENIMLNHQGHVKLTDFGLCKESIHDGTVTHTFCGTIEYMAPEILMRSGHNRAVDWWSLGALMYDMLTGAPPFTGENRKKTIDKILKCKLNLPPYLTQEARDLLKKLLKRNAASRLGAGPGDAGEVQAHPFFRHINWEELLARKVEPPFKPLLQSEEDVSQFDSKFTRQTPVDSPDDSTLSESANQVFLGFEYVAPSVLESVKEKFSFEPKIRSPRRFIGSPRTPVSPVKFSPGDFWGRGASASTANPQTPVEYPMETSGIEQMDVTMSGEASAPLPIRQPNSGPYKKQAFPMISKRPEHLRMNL

| Structure (SMILES) | IC50 [1] | IC50 (His-AKT (Full Length)) |
| --- | --- | --- |
| O=C1CNc2ncnc(N3CCN(C(CN4CCCC4)c4ccc(Cl)cc4)CC3)c2N1 (stereo not shown) [Compound A30, 4-{4-[1-(4-chloro-phenyl)-2-(pyrrolidin-yl)-ethyl]-piperazin-1-yl}-7,8-dihydro-5H-pteridin-6-one] | 501 to 1000 nM | 501 to 1000 nM |
| O=C1CNc2ncnc(N3CCN(C(CN4CCCCC4)c4ccc(C(F)(F)F)cc4)CC3)c2N1 (stereo not shown) [Compound A33, 4-{4-[1-(4-trifluoro-phenyl)-2-(piperidin-yl)-ethyl]-piperazin-1-yl}-7,8-dihydro-5H-pteridin-6-one] | > 1000 nM | 501 to 1000 nM |
| CN(C)CC(c1ccccc1F)N1CCN(c2ncnc3c2NC(=O)CN3)CC1 (stereo not shown) [Compound A36, 4-(4-(2-(dimethylamino)-1-(2-fluorophenyl)ethyl)piperazin-1-yl)-7,8-dihydropteridin-6(5H)-one] | > 1000 nM | > 1000 nM |
| O=C1CNc2ncnc(N3CCN(C(CN4CCC4)c4ccccc4F)CC3)c2N1 (stereo not shown) [Compound A37, 4-(4-(2-(azetidin-1-yl)-1-(2-fluorophenyl)ethyl)piperazin-1-yl)-7,8-dihydropteridin-6(5H)-one] | > 1000 nM | > 1000 nM |
| O=C1CNc2ncnc(N3CCN(C(CN4CCCCC4)c4ccccc4F)CC3)c2N1 (stereo not shown) [Compound A38, 4-(4-(1-(2-fluorophenyl)-2-(piperidin-1-yl)ethyl)piperazin-1-yl)-7,8-dihydropteridin-6(5H)-one] | > 1000 nM | > 1000 nM |
| NCC(c1ccccc1Cl)N1CCN(c2ncnc3c2NC(=O)CN3)CC1 (stereo not shown) [Compound A39, 4-(4-(2-amino-1-(2-chlorophenyl)ethyl)piperazin-1-yl)-7,8-dihydropteridin-6(5H)-one] | > 1000 nM | > 1000 nM |
| CN(C)CC(c1ccccc1Cl)N1CCN(c2ncnc3c2NC(=O)CN3)CC1 (stereo not shown) [Compound A40, 4-(4-(1-(2-chlorophenyl)-2-(dimethylamino)ethyl)piperazin-1-yl)-7,8-dihydropteridin-6(5H)-one] | > 1000 nM | > 1000 nM |
| CNCC(c1ccccc1Cl)N1CCN(c2ncnc3c2NC(=O)CN3)CC1 (stereo not shown) [Compound A41, 4-(4-(1-(2-chlorophenyl)-2-(methylamino)ethyl)piperazin-1-yl)-7,8-dihydropteridin-6(5H)-one] | > 1000 nM | > 1000 nM |

Second part, the molecule after the results:

| IC50 [1] | IC50 (His-AKT (Full Length)) | Structure (SMILES) |
| --- | --- | --- |
| 501 to 1000 nM | 101 to 500 nM | CN(C)CC(c1ccc(C(F)(F)F)cc1)N1CCN(c2ncnc3c2NC(=O)CN3)CC1 (stereo not shown) [Compound A28, 4-{4-[2-dimethylamino-1-(4-trifluoromethyl-phenyl)-ethyl]-piperazin-1-yl}-7,8-dihydro-5H-pteridin-6-one] |
| > 1000 nM | > 1000 nM | O=C1CNc2ncnc(N3CCN(C(CN4CCCC4)c4ccc(F)cc4)CC3)c2N1 (stereo not shown) [Compound A29, 4-{4-[1-(4-fluoro-phenyl)-2-(pyrrolidin-yl)-ethyl]-piperazin-1-yl}-7,8-dihydro-5H-pteridin-6-one] |
| > 1000 nM | > 1000 nM | O=C1CNc2ncnc(N3CCN(C(CN4CCCCC4)c4ccc(F)cc4)CC3)c2N1 (stereo not shown) [Compound A31, 4-{4-[1-(4-fluoro-phenyl)-2-(piperidin-yl)-ethyl]-piperazin-1-yl}-7,8-dihydro-5H-pteridin-6-one] |
| > 1000 nM | 501 to 1000 nM | O=C1CNc2ncnc(N3CCN(C(CN4CCCCC4)c4ccc(Cl)cc4)CC3)c2N1 (stereo not shown) [Compound A32, 4-{4-[1-(4-chloro-phenyl)-2-(piperidin-yl)-ethyl]-piperazin-1-yl}-7,8-dihydro-5H-pteridin-6-one] |
| > 1000 nM | > 1000 nM | O=C1CNc2ncnc(N3CCN(C(CN4CCCC4)c4ccc(C(F)(F)F)cc4)CC3)c2N1 (stereo not shown) [Compound A34, 4-{4-[2-Pyrrolidin-1-yl-1-(4-trifluoromethyl-phenyl)-ethyl]-piperazin-1-yl}-7,8-dihydro-5H-pteridin-6-one] |
| > 1000 nM | > 1000 nM | O=C1CNc2ncnc(N3CCN(C(CN4CCCC4)c4ccccc4F)CC3)c2N1 (stereo not shown) [Compound A35, 4-(4-(1-(2-fluorophenyl)-2-(pyrrolidin-1-yl)ethyl)piperazin-1-yl)-7,8-dihydropteridin-6(5H)-one] |
